Test results from patent US4366143A, “Assay for the free portion of substances in biological fluids” (Amersham International Public Limited Company, priority 1979, dated 1982).
Where two headings read alike, the source gives them in different places.

How the values were obtained:
serum albumin = conditions: U.S. Pat. No. 4,069,305; cited from earlier work
transcortin = biological target: T1, transcortin (Homo sapiens, UniProt P08185); experiment: Binding of cortisol tracers to serum proteins / transcortin with and without ANS (Example 4); conditions: for % Tracer Bound to Serum Proteins (Corrected for Non-Specific Binding): charcoal extracted human serum
T1 construct: charcoal extracted human serum; from tissue; host or cells: human serum, charcoal extracted (unpurified)
T1 sequence (P08185 23-405): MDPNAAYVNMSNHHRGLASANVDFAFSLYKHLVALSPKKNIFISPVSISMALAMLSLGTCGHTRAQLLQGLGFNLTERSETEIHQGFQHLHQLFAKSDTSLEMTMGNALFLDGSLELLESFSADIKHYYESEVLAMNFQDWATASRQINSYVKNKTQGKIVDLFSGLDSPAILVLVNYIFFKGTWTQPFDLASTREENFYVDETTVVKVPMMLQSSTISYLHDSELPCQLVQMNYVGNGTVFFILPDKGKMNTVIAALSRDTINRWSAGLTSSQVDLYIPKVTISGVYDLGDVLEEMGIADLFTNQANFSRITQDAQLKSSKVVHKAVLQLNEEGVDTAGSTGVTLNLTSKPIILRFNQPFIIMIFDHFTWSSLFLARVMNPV
Method: The protocol was as follows:
B. 200 μl buffer (containing either 0 or 600 μg of 8-anilinonaphthalene sulphonic acid (ANS) as a cortisol binding site blocking agent).
A mixture of A and B was incubated at 37° C. for one hour. […] The reaction tubes were mixed for one hour at room temperature. A 0.5 ml aliquot of the supernatant was then removed for counting.

[1] = test system: rabbit anti-cortisol serum
Method: This experiment is designed to test the binding of cortisol-3-carboxymethyloxime-histamine-I^125 tracer with an antiserum raised to a cortisol-3-carboxymethyloxime-thyroglobulin conjugate. The protocol was as follows:
50 μl of serum was mixed with 200 μl of cortisol-3-carboxymethyloxime-histamine-I^125 tracer solution. The specific activity of the tracer was 3.9 curies per milligram. The tracer concentration was 125 picomolar. The buffer contained 28 g/l Na2 HPO4.12H2 O, 4.6 g/l citric acid monohydrate, 9 g/l NaCl, 3 g/l E.D.T.A. disodium salt, 0.5 g/l NaN3, 1 g/l gelatin and 1 g/l of 8-anilinonaphthalene sulphonic acid (the latter to inhibit binding of cortisol to transcortin and albumin).
To the mixture of tracer and serum, 200 μl of a suspension of polystyrene latex particles (0.9 micron diameter) coated with the rabbit anti-cortisol serum was added. The buffer was 28 g/l Na2 HPO4.12H2 O, 4.6 g/l citric acid monohydrate, 0.5 g/l NaN3 and 2 g/l bovine serum albumin. The effective antiserum dilution in the assay tube was 1/20000.
The resulting mixture was vortexed and incubated at 37° C. for 1 hour. The antibody coated particles were centrifuged down at 1500 g for 15 minutes and the liquid phase decanted off.

[2] = test system: antiserum raised to a 21-hemisuccinate-cortisol conjugate to bovine serum albumin; conditions: heterologous tracer-immunogen pair

For `C[C@]12CCC(=NOCC(=O)NCCc3c[nH]cn3)C=C1CC[C@@H]1[C@@H]2[C@@H](O)C[C@@]2(C)[C@H]1CC[C@]2(O)C(=O)CO`, the “binding to serum albumin relative to cortisol (in words)” value (serum albumin) is given as “binds much less strongly to serum albumin than cortisol itself”.

In the case of “cortisol-3-carboxymethyloxime-histamine I^125”, the “binding to transcortin (in words)” value (transcortin) is reported as “binds very weakly to transcortin”, the “% Tracer Bound to Serum Proteins (Corrected for Non-Specific Binding)” value (transcortin; ANS 0 μg/tube) is reported as 7% and the “% Tracer Bound to Serum Proteins (Corrected for Non-Specific Binding)” value (transcortin; ANS 600 μg/tube) is reported as 5%. For the same molecule, the “displacement from transcortin by ANS blocking agent (in words)” value (transcortin; high concentrations of ANS) was “not significantly displaced by the ANS blocking agent”, the “% Radioactivity in the antibody Coated Particles” value (from here on “% Radioactivity”) ([1]; Total Plasma Cortisol 0 μg/dl) was 65.4% and the “% Radioactivity” value ([1]; Total Plasma Cortisol 1 μg/dl) was 56.6%. The “% Radioactivity” value ([1]; Total Plasma Cortisol 4 μg/dl) was 43.0%, the “% Radioactivity” value ([1]; Total Plasma Cortisol 10 μg/dl) was 30.6% and the “% Radioactivity” value ([1]; Total Plasma Cortisol 28 μg/dl) was 19.2%. The “% Radioactivity” value ([1]; Total Plasma Cortisol 60 μg/dl) was 12.2% and the “affinity of antiserum for tracer (in words)” value [2] was “sufficient affinity”.
